Assay results as given in US3975399A, “1,5-Disubstituted-2-pyrrolidinones, -3-pyrrolin-2-ones, and -4-pyrrolin-2-ones” (E. I. Du Pont de Nemours and Company, priority 1974, dated 1976).
≈ marks a conversion by molar mass, not a printed value.

Key:
[1] = tested on: croton oil-induced inflammation of rat ears; experiment: Topical antiinflammatory activity against croton oil-induced inflammation of rat ears; type: in vivo; settings: 2-3 mg/ear
[2] = tested on: rat uterine smooth muscle; experiment: Contraction of rat uterine smooth muscle
[3] = tested on: adjuvant-induced arthritis in rats; experiment: Systemic antiinflammatory activity against adjuvant-induced arthritis in rats; type: in vivo, rat; settings: intraperitoneal injection, 50 mg/kg
inflammation = experiment: Topical and injectable antiinflammatory activity (general statement); type: in vivo
[4] = tested on: croton oil-induced inflammation of mouse ears; experiment: Topical antiinflammatory activity against croton oil-induced inflammation of mouse ears; type: in vivo; settings: 2-3 mg/ear
[5] = tested on: PGE1-induced smooth muscle contractions; experiment: Antagonism of PGE1-induced smooth muscle contractions; settings: read-out: antagonizes PGE1-induced smooth muscle contractions, concentration for 50% inhibition
[6] = tested on: histamine-induced bronchoconstriction; experiment: Histamine-induced bronchoconstriction; settings: in vivo
[7] = tested on: gastrin-induced gastric acid secretion; experiment: Gastrin-induced gastric acid secretion; settings: in vivo
bronchial smooth muscle = settings: cited from earlier work

Row | Compound | topical antiinflammatory activity [1] | systemic antiinflammatory activity [3] | active as injectable antiinflammatory agent (inflammation) | active as topical antiinflammatory agent (inflammation) | topical antiinflammatory activity [4] | also measured
1 | CCCCCC(O)/C=C/C1CCC(=O)N1CCCCCCC(=O)OC(C)(C)C (stereo not drawn) [Compound 4, Tert-butyl 7-[2-Oxo-5-(3-hydroxy-1-oct-1-enyl)-1-pyrrolidinyl]heptanoate] | also active, though slightly less so | also active, though slightly less so | active | active | also active, though slightly less so | antagonism of the contracting action of compound 5 ([2]; rat uterine smooth muscle, compound 5-induced contraction): is antagonized in this action; IC50 [5]: 10 µg/mL (≈ 25.3 µM)
2 | CCCCCC(O)/C=C/C1CCC(=O)N1CCCCCCC(=O)O (stereo not drawn) [Compound 5, 7-[2-Oxo-5-(3-hydroxy-1-oct-1-enyl)-1-pyrrolidinyl]-heptanoic Acid] | has shown activity | has shown activity | active | active | has shown activity | activity as antagonist to histamine-induced bronchoconstriction [6]: has shown activity; activity in cutting off gastrin-induced gastric acid secretion [7]: has shown activity; contracts rat uterine smooth muscle (concentration) ([2]; in the same way as PGE1): 50 ng/mL
3 | CCCCC[C@H](O)/C=C/[C@H]1[C@H](O)CC(=O)[C@@H]1CCCCCCC(=O)O [PGE1, reference compound] | – | – | – | – | – | contraction of rat uterine smooth muscle (in words) ([2]; comparator for compound 5): contracts rat uterine smooth muscle; effect on the contracting action of PGF2α (bronchial smooth muscle): reverses or antagonizes
4 | CCCCC[C@H](O)/C=C/[C@@H]1[C@@H](C/C=C\CCCC(=O)O)[C@@H](O)C[C@H]1O [PGF2 α] | – | – | – | – | – | contracting action (bronchial smooth muscle): contracting action
